Measurements published in ChEMBL document CHEMBL1201862, “PubChem BioAssay data set” (2004).
The source made the active and inactive calls.

Experiments:
[1] = biological target: T1, High affinity choline transporter 1 (Homo sapiens, UniProt Q9GZV3); assay: human choline transporter blockers, potency – cell-based, 5-point CRC, membrane potential dye, dose response (AID 504840); type: functional
T1 sequence (Q9GZV3 whole entry): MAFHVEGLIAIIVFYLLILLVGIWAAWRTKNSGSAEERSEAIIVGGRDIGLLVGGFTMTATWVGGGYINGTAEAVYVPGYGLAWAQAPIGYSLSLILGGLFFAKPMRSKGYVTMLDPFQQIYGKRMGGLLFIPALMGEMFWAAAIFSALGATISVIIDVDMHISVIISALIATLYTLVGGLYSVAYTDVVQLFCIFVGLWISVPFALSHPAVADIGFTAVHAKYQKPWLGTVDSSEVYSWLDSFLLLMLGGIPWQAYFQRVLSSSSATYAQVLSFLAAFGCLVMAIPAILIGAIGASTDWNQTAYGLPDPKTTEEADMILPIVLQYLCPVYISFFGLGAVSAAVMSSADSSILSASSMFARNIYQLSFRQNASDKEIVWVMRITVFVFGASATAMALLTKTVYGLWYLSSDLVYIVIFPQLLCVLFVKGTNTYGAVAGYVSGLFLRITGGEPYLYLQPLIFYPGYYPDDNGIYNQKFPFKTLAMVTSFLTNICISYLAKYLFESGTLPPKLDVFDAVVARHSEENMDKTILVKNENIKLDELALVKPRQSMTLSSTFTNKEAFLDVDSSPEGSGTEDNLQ

[2] = biological target: T2, Short transient receptor potential channel 4 (Mus musculus, UniProt Q9QUQ5); assay: calcium entry via TRPC4 opening agents – cell-based, HEK293 TRPC4/mu-opioid, Fluo-4 calcium, dose response (AID 434937); type: functional
T2 sequence (Q9QUQ5 whole entry): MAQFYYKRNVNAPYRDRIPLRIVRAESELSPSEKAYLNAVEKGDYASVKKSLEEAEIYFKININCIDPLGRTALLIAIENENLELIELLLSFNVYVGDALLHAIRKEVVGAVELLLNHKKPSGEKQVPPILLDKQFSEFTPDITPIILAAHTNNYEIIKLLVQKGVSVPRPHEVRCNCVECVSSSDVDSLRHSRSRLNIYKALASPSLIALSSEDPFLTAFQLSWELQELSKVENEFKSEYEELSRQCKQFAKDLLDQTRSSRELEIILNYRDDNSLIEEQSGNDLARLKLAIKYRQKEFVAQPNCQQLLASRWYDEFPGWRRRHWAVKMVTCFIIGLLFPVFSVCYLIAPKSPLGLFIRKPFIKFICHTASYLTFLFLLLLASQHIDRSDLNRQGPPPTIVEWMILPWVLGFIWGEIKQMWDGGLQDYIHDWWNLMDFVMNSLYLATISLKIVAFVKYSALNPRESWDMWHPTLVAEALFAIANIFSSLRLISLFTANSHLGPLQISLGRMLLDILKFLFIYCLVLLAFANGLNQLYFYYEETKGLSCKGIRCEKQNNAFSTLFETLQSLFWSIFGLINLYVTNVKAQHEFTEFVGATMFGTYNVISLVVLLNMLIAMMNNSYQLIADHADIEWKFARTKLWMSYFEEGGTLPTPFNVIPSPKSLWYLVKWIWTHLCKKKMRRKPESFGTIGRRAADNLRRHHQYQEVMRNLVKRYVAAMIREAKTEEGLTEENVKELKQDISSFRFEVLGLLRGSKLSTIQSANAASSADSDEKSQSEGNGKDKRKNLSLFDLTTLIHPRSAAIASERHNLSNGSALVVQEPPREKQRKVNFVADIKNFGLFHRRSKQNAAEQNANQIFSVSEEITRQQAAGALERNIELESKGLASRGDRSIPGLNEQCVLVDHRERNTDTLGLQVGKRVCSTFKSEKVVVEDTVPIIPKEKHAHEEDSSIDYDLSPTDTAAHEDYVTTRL

cells [3] = type: functional, cell-based
cells [4] = type: functional, cell-based; remark: listed apart in the source
[5] = luciferase reporter signal suppression in cells – H4 neuroglioma cells, luminescence, dose response (AID 1990); type: functional, cell-based
[6] = Luminescence Cell-Based Dose Response HTS to Identify Inhibitors of 5'UTR Stem-Loop Driven Prion Protein mRNA Translation in H4 Neuroglioblastoma Cells. [Related pubchem assays: 1827 (Project Summary), 1813 (Primary HTS)]; type: functional
[7] = alpha-synuclein stem-loop luciferase translation blockers – H4 neuroglioma cells, luminescence, confirmation (AID 1988); type: functional, cell-based
[8] = microbe, parasite or virus in culture; type: functional; settings: Mycobacterium tuberculosis
BJ [9] = assay: BJ-TERT fibroblast viability loss – cell-based, RAS-independent, luminescence, dose response (AID 1933); type: functional; settings: Homo sapiens
BJ [10] = assay: cells; type: functional, cell-based; settings: Homo sapiens
BJ [11] = assay: BJ-TERT-LT-ST fibroblast viability loss – cell-based, RAS-independent, luminescence, dose response (AID 1935); type: functional; settings: Homo sapiens;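 note: BJ fibroblasts immortalized with TERT plus LT and ST oncogenes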
[12] = DRD fibroblast viability loss – cell-based, non-viral oncogenic, luminescence, dose response (AID 1934); type: functional; settings: Homo sapiens
[13] = Luminescence Cell-Based Dose Retest to Confirm Inhibitors of Cancer Stem Cells. [Related pubchem assays (depositor defined):AID2717, AID2721]; type: functional; settings: Homo sapiens
BJ [14] = assay: growth inhibition of engineered Ras-driven BJ cells – cell-based, alamar blue fluorescence, cherrypicked samples, dose response (AID 2631); type: functional; settings: Homo sapiens;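 note: confirmatory dose-response assay in RAS-dependent BJ fibroblasts engineered with TERT, LT and ST, with cytotoxicity read by fluorescence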
[15] = reduction of Shn3 3'UTR-driven luciferase in osteoblasts – cell-based, Clone20 osteoblasts, firefly luciferase, cherry-picked, dose response (AID 624132); type: functional;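 note: firefly luciferase luminescence from reporter carrying the Shn3 3'UTR in osteoblasts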
[16] = non-specific 3'UTR reporter inhibition in Clone20-Shn3RL – cell-based, Renilla luciferase, cherry-picked, counter-screen for Shn3 inhibitor project, dose response (AID 624133); type: functional
[17] = intracellular Trypanosoma cruzi inhibitors in host cells – cell-based, plate reader, cherry-pick samples, set 3, dose response (AID 651818); type: functional;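 note: compounds incubated with infected cells for about four days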
[18] = P. falciparum Dd2 growth inhibitors, dose response, SYBR Green, cherry-picked samples (AID 1159567); type: functional, cell-based
[19] = tested on: Streptococcus sp. 'group A'; assay: Streptococcus pyogenes SK(-)GAS viability under kanamycin – luminescence, BacTiterGlo, confirmation, counter-screen for streptokinase expression inhibitor project, dose response (AID 1900); type: functional, organism-based
Streptococcus = assay: GAS UMAA2166 growth inhibition – luminescence, BacTiterGlo, counter-screen for streptokinase expression inhibitor project, dose response (AID 1915); type: functional, organism-based;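 note: potency for reduction of bacterial viability or growth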

O=C(Nc1nc2ccc(S(=O)(=O)N3CCCCC3)cc2s1)c1cccnc1
IC50 [1]: 13.2 µM (active)

O=C1NC(=S)S/C1=C\c1coc2ccccc2c1=O
IC50 [1]: 14.5 µM (active)

O=C1OC(c2ccc([N+](=O)[O-])cc2)=N/C1=C/N1CC2CC(C1)c1cccc(=O)n1C2 (stereo not drawn)
EC50 [2]: 10.6 µM (active)

COc1ccc(-c2nc3ccc(C(=O)NCCCN4CCOCC4)cc3nc2-c2ccc(OC)cc2)cc1
IC50 [1]: 13.2 µM (active)

NN=C(S)NCCc1ccccc1
IC50 (cells [3]): > 29.9 µM (inactive) | EC50 (cells [4]): > 29.9 µM (inactive)

NC(=O)CC(NC(=O)Cc1ccc(Cl)cc1)c1ccc(NCCc2ccccc2F)c([N+](=O)[O-])c1 (stereo not drawn)
IC50 (cells [3]): > 29.9 µM (inactive) | EC50 (cells [4]): > 29.9 µM (inactive)

CC1CN(c2ccc([N+](=O)[O-])c(NCCOc3ccc(Cl)cc3)c2)CC(C)N1 (stereo not drawn)
EC50 [5]: > 120 µM (not active) | EC50 [6]: 13.6 µM (active) | EC50 [7]: 9.59 µM (active) | CC50 [8]: 11.7 µM (active)

COc1ccccc1/C=C1\SC(=S)N(CCC(=O)NCCCn2ccnc2)C1=O
EC50 (BJ [9]): > 150 µM (not active) | EC50 (BJ [10]): > 150 µM (not active) | EC50 (BJ [11]): > 75 µM (inconclusive) | EC50 [12]: > 150 µM (not active) | AC50 [13]: 6.05 µM (active) | EC50 (BJ [14]): > 133 µM (inactive)

O=[N+]([O-])c1cc(C(F)(F)F)ccc1N1CCCNCC1
EC50 [2]: 0.841 µM (active)

Cc1cc(C)n2nc(SCc3cccc(S(=O)(=O)N(C)C)c3)nc2n1
AC50 [15]: 14 µM (active) | AC50 [16]: 8.55 µM (active)

O=C(CCN1C(=O)/C(=C\c2cccc(Br)c2)SC1=S)NCCCN1CCOCC1
EC50 (BJ [9]): 1.4 µM (inconclusive) | EC50 (BJ [10]): 93.6 µM (inconclusive) | EC50 (BJ [11]): > 150 µM (not active) | EC50 [12]: 4.75 µM (active) | EC50 (BJ [14]): > 66.7 µM (inactive)

CN(CC(=O)Nc1ccccc1Cl)C(=O)CCNC(=O)Nc1ccccc1
IC50 (cells [3]): > 29.9 µM (inactive) | EC50 (cells [4]): > 29.9 µM (inactive)

CN1CCN(C(=O)c2cccn(Cc3c(Cl)cccc3Cl)c2=O)CC1
EC50 [2]: 0.668 µM (active)

CN(C)C(CNC(=O)Cc1c(Cl)cccc1Cl)c1ccccc1 (stereo not drawn)
EC50 [2]: 0.376 µM (active)

CN1CCN(S(=O)(=O)c2cccc(C(=O)Nc3ccc(Br)cc3Br)c2)CC1
IC50 [1]: 12.6 µM (active)

Cc1ccc(S(=O)(=O)Nc2ccc3c(c2)C(=O)N([C@H](C)CO)C[C@H](C)[C@H](CN(C)S(=O)(=O)c2ccccc2)O3)cc1
AC50 [17]: 13.3 µM (active)

C[C@@H]1CN([C@H](C)CO)C(=O)Cc2cc(NC(=O)Nc3ccc(C(F)(F)F)cc3)ccc2O[C@H]1CN(C)CC1CCCCC1
AC50 [17]: 3.27 µM (active)

COc1ccc(CN(C)C[C@H]2Oc3ccc(NS(=O)(=O)c4ccc(Cl)cc4)cc3CC(=O)N([C@H](C)CO)C[C@H]2C)cc1
AC50 [17]: 4.65 µM (active)

C[C@H](CO)N1C[C@H](C)[C@H](CN(C)Cc2ccc(-c3ccccc3)cc2)Oc2ccc(NC(=O)C3CCCCC3)cc2CC1=O
AC50 [17]: 2.26 µM (active)

C[C@H](CO)N1C[C@H](C)[C@H](CN(C)S(=O)(=O)c2ccc(Cl)cc2)Oc2ccc(NC(=O)Nc3ccc(C(F)(F)F)cc3)cc2CC1=O
AC50 [17]: 3.91 µM (active)

C[C@@H]1CN([C@@H](C)CO)C(=O)Cc2cc(NC(=O)C3CC3)ccc2O[C@@H]1CN(C)Cc1ccc(C(=O)Nc2ccccc2N)cc1
AC50 [17]: 3.26 µM (active)

CC(C)c1cc(C(=O)NCCc2cccs2)c(N)s1
IC50 (cells [3]): > 29.9 µM (inactive) | EC50 (cells [4]): > 29.9 µM (inactive)

C[C@H](CO)N1C[C@H](C)[C@H](CN(C)Cc2ccc(Oc3ccccc3)cc2)Oc2c(NC(=O)c3nc4ccccc4s3)cccc2C1=O
AC50 [18]: 4.87 µM (active)

COCC(=O)N1CC2(C1)CN(Cc1cc(F)ccc1F)[C@H](CO)c1[nH]c3cc(OC)ccc3c12
AC50 [18]: 13.6 µM (active)

COc1cccc(N2C(N)=NC(N)=NC2(C)C)c1
EC50 [19]: 0.355 µM (active) | EC50 (BJ [9]): > 150 µM (not active) | EC50 (BJ [10]): 5.99 µM (inconclusive) | EC50 (BJ [11]): > 150 µM (not active) | EC50 [12]: 12.6 µM (active) | EC50 (Streptococcus): 1.42 µM (active) | EC50 (BJ [14]): > 133 µM (inactive)
